Measured values from patent US20100234385A1 (Kaneka Corporation, priority 2006, published 2010).

Columns and labels:
[1] = Sawabe et al. 2004, cited from earlier work
[2] = BH4 concentration in the brain after oral administration for 3 consecutive days to hph-1 mice; conditions: 5 mg/kg oral, 3 consecutive days at 24-hour intervals, 2.5 hours after final dosing, versus non-dose group
Procedure: The mice were biopsied 2.5 hours after the final dosing, their brains were excised and BH4 levels were quantified in the same manner as Example 1.

melanocytes = assay: Inhibitory effect on melanocytes in vitro; type: cell-based

Compound | time of sharp peak of BH4 after administration [1] [h] | time until BH4 concentration returns to the original level ([1]; after administration of BH4) | intracerebral BH4 concentrations [2] | effects on melanocytes in vitro (melanocytes)
C[C@H](O)[C@H](O)[C@H]1CNc2nc(N)[nH]c(=O)c2N1 [BH4, L-erythro-5,6,7,8-tetrahydrobiopterin] | 0.5 to 1 | about 4 hours | changes are not observed | 
6-(L-erythro-1,2-dihydroxypropyl)-pterin or 7-(L-erythro-1,2-dihydroxypropyl)-pterin [biopterin] |  |  |  | inhibitory effects
